What was measured:
SCaBER cells = test: In vitro binding of [^68Ga]AJ647 to SCaBER cells; assay type: cell-based; details: 1 × 10^6 cells, ~1 μCi, 30 min, 4°C, means ± SD, n = 4
Experimental: (§1) In vitro binding of [^68Ga]AJ647 to T24, SCaBER, RT112, UC9, UC14, and HT1376 cells was determined by incubating 1 × 10^6 cells with ~1 μCi of [^68Ga]AJ647 for 30 min at 4°C. After incubation, cells were washed three times with ice-cold PBS containing 0.1% Tween 20 and counted on an automated gamma counter. All cell radioactivity uptake studies were performed in quadruplicate for each cell line and repeated three times.

HT1376 cells = test: In vitro binding of [^68Ga]AJ647 to HT1376 cells; assay type: cell-based; details: 1 × 10^6 cells, ~1 μCi, 30 min, 4°C, means ± SD, n = 4
Experimental: as §1

HT1376 tumors [1] = test: Pilot in vivo EV effect on tumor uptake of [^68Ga]AJ647, HT1376 tumors; set-up: species or system NSG mice; details: EV 20 mg/kg i.v. single dose, 24 hours before tracer, ex vivo 60 min, n = 5
Experimental: Male NSG mice were implanted subcutaneously with HT1376 and SCaBER cells (4 million each) on the right and left rostral ends, respectively. On day 25 after cell inoculation (average tumor volume, 200 ± 35 mm^3), mice were randomized and treated with a single dose of either saline or EV ADC (20 mg/kg) injected intravenously (volume not exceeding 300 μl) or with 200 μl of saline (n = 7 per group). Twenty-four hours following the EV dose, [^68Ga]AJ647 PET scans (n = 2 per group) were acquired, and ex vivo biodistribution (n = 5 per group) was performed using the protocols mentioned above.

[2] = lowest exposure (Cavg) quartile; cited from earlier work
Source text: Real-time assessment of tumor heterogeneity remains a critical challenge in optimizing targeted therapies. Despite the importance of sensitive assays for real-time insights into drug-tumor interactions, such tools remain limited ([6], [25]). Model-based approaches that integrate nonclinical and clinical data—such as PK and PD parameters—can facilitate efficacy and safety predictions ([26]). However, these models often fail to fully account for the dynamic complexities of tumor heterogeneity and intrinsic factors that affect drug PK/PD, especially in real time. This is particularly true for mac ...

HT1376 tumors [3] = test: EV effect on Nectin-4 temporal PD, [^68Ga]AJ647 PET; assay type: in vivo, NSG mice
Experimental: Mice with tumor volumes of ~100 to 150 mm^3 were injected with ~200 μCi [7.4 megabecquerels (MBq)] of [^68Ga]AJ647 in […] of 5% ethanol in saline intravenously and anesthetized under 2.5% isoflurane. PET-computed tomography (CT) images were acquired at 60 min after radiotracer injection at 5 min per bed in an ARGUS small-animal PET/CT scanner (Sedecal, Madrid, Spain) as described previously (n = 3, unless otherwise noted). PET-MR images were acquired on a simultaneous 7T Bruker PET-MR scanner. Dynamic imaging was conducted to evaluate the PK of [^68Ga]AJ647. [^68Ga]AJ647 was injected (with the help of a catheter) after mice were anesthetized under 2.5% isoflurane on the equipment bed. All PET data were reconstructed using the two-dimensional (2D) ordered subset expectation maximization algorithm and corrected for radioactive decay and dead times. The SUV values were calculated by finding %IA on the basis of a calibration factor obtained from a known radioactive quantity and then normalizing by mice weight. Amide software was used to derive SUV values by drawing the region of interest to closely fit tumors. In particular, MR images were used to identify tumor boundaries manually; these boundaries were transferred to co-registered PET images to derive SUVs. This process was repeated for each mouse individually in a blinded fashion. For the change in accessible Nectin-4 following EV treatment, ΔSUV was calculated by subtracting baseline (pre-treatment) uptake from posttherapy uptake of [^68Ga]AJ647. TE was quantified by normalizing this change by initial SUV in the same subject controls. Image fusion, visualization, and 3D rendering were accomplished using Amira 2020.3.1 (FEI, Hillsboro, OR). The dose-time PD of Nectin-4 following EV treatment was studied at doses of 6, 9, and 15 mg/kg. Experiments involving PET imaging were performed first. Male NSG mice were inoculated with 4 million HT1376 cells at day 0. On day 23 (average tumor volume, 150 ± 30 mm^3), mice were randomized to receive either saline or a single dose of EV (6, 9, or 15 mg/kg) intravenously (n = 3 for each dose and n = 2 for saline). Mice (n = 2) from each dose group and saline group were imaged on days 1, 3, and 6 following EV treatment. Once PET imaging results were analyzed, ex vivo distribution experiment was performed with n = 16 to 18 for each dose and n = 10 for saline. Treated mice (n = 8 or 9 per dose per time point) along with saline controls (n = 5 per time point) were euthanized on days 1 and 6. Biodistribution studies were performed at 60 min after [^68Ga]AJ647 injection, as described above. PD metrics were defined as follows Accessible Nectin−4=SUVpost/SUVpre∗100 Nectin−4 TE=(SUVpre−SUVpost)/SUVpre∗100

Row | Molecule | [^68Ga]AJ647 uptake (SCaBER cells) [%IA] | [^68Ga]AJ647 uptake (HT1376 cells) [%IA] | reduction in [^68Ga]AJ647 tumor uptake vs saline controls (HT1376 tumors [1]) [%] | response rate [2] [%] | Nectin-4 engagement by PET (HT1376 tumors [3]; day 1, EV 6, 9 or 15 mg/kg single dose) | Nectin-4 engagement by PET (HT1376 tumors [3]; day 3, EV 6 mg/kg) | Nectin-4 engagement by PET (HT1376 tumors [3]; day 3, EV 9 and 15 mg/kg) | Nectin-4 engagement by PET (HT1376 tumors [3]; day 6, EV 6 mg/kg) | Nectin-4 engagement by PET (HT1376 tumors [3]; day 6, EV 9 mg/kg) | Nectin-4 engagement by PET (HT1376 tumors [3]; day 6, EV 15 mg/kg)
1 | CSCC[C@@H]1NC(=O)[C@@H]2CSCCC(=O)N3CN(CN(C3)C(=O)CCSC[C@H](NC(=O)CCOCCOCCOCCOCCOCCOCCOCCOCCOCCOCCOCCOCCNC(=O)CN3CCN(CC(=O)O)CCN(CC(=O)O)CC3)C(=O)N3CCC[C@H]3C(=O)N[C@@H](Cc3cccc4ccccc34)C(=O)N[C@@H](CC(=O)O)C(=O)N2)C(=O)CCSC[C@@H](C(N)=O)NC(=O)[C@H](Cc2c[nH]c3ccccc23)NC(=O)[C@@H]2C[C@@H](O)CN2C(=O)[C@@H]2CCCN2C(=O)[C@H]([C@@H](C)O)NC(=O)[C@H](CO)NC(=O)[C@H](Cc2c[nH]c3ccccc23)NC(=O)[C@@H](CC(=O)O)NC(=O)[C@H](CCCCNC(=N)N)NC1=O [[^68Ga]AJ647, metal not drawn] | 1.6 ± 0.13 | 6.5 ± 0.52 | – | – | – | – | – | – | – | –
2 | enfortumab vedotin [EV] | – | – | 84 | 32 | full occupancy of Nectin-4 | increase in [^68Ga]AJ647 uptake | low tracer uptake | significant increase in [^68Ga]AJ647 uptake | moderate increase in uptake | minimal tracer uptake
